{"source": "patent US7807445B2", "about": "“Antibiotic compound” (Merck Sharp and Dohme de Espana, S.A., priority 2004, dated 2010)", "key": {"[1]": {"tested_on": "various strains of S. aureus, S. pneumoniae, E. faecalis, E. faecium, B. subtilis and E. coli, including MRSA, VRE, multidrug-resistant E. faecium …", "assay": "Microbroth dilution assay (MIC), antibacterial activity", "type": "cell-based", "conditions": "various strains of S. aureus, S. pneumoniae, E. faecalis, E. faecium, B. subtilis and E. coli, including MRSA, VRE, multidrug-, macrolide- and linezolid-resistant species", "protocol": "(§1) The protocols used to determine the antibacterial activity of Compound I are described below.\n(§2) • Cation-Adjusted Mueller Hinton Broth (MH; BBL) • 50% Lysed Horse Blood (LHB; BBL) (stored frozen) • RPMI 1640 (BioWhittaker) • Human Serum (Pel-Freez) • RPMI 1640 (BioWhittaker) • Haemophilus Test Medium (HTM, Remel) • Trypticase Soy Broth (TSB, 5 mL/tube; BBL) • 0.9% Sodium Chloride (Saline; Baxter) • Trypticase Soy+5% Sheep Blood Agar Plates (TSA; BBL) • Sabouraud Dextrose Agar Plates (BBL) • Chocolate Agar Plates (BBL) • 2× Skim Milk (Remel) • Microbank Beads (Kramer Scientific) • MIC 2000 Microtiter plate inoculator. • 2× Trypticase Soy Broth (TSB, BBL)+15% glycerol/50% horse serum. • 96-Well Microtiter plates, lids, inoculum trays (Dynex Laboratories) • 8-Channel Finn Multichannel pipettor, 0.5-10 μL volume Methods: Media Preparation\n(§3) Cation-Adjusted Mueller Hinton Broth (BBL): Prepared according to manufacturer's instructions (22 gms dissolved in 1000 mL water; autoclaved 22 minutes). Stored refrigerated. Filter-sterilized before use using a Corning 0.45 Tm cellulose acetate filter.\n(§4) Cation-Adjusted Mueller Hinton+2.5% Lysed Horse Blood: Aseptically add 5 mL 50% lysed horse blood to 100 mL Cation-Adjusted Mueller Hinton Broth. Filter-sterilize before use using a Corning 0.45 Tm cellulose acetate filter. […]"}, "[2]": {"assay": "Microbroth dilution assay (MIC), antibacterial activity", "type": "cell-based", "conditions": "range over all test strains (S. aureus, S. pneumoniae, E. faecalis, E. faecium, B. subtilis, E. coli and resistant strains); 35° C., read to no growth after 22-24 hours; NCCLS guidelines; read-out: minimum inhibitory concentration (MIC)", "protocol": "as §1, §2, §3, §4"}}}
{"smiles": "C=C1C[C@@]23C=CC(=O)[C@@](C)(CCC(=O)Nc4c(O)ccc(C(=O)O)c4O)C2C[C@@H]1CC3", "note": "(stereo in doubt) [Compound I]", "values": [{"measurement": "antibacterial activity", "setting": "[1]", "value": "demonstrates antibacterial activity"}, {"measurement": "MIC", "setting": "[2]", "value": "0.5 to 32", "unit": "µg/mL"}]}
